Source: ChEMBL document CHEMBL5120948, “Ynamide Electrophile for the Profiling of Ligandable Carboxyl Residues in Live Cells and the Development of New Covalent Inhibitors” (J Med Chem, 2022)
Each block holds one compound with its values, some of them ahead of it. Activity calls are given as the source filed them. The calls are words filed in the database; no cut-off is given here.

Legend:
[1] = molecular target: Dual specificity mitogen-activated protein kinase kinase 2 (Homo sapiens) (UniProt P36507); assay: Binding affinity to MEK2 in human HepG2 cells at 100 uM incubated for 8 hrs by pull-down/Western blot analysis; type: cell-based
Dual specificity mitogen-activated protein kinase kinase 2 (Homo sapiens), sequence (P36507 whole entry): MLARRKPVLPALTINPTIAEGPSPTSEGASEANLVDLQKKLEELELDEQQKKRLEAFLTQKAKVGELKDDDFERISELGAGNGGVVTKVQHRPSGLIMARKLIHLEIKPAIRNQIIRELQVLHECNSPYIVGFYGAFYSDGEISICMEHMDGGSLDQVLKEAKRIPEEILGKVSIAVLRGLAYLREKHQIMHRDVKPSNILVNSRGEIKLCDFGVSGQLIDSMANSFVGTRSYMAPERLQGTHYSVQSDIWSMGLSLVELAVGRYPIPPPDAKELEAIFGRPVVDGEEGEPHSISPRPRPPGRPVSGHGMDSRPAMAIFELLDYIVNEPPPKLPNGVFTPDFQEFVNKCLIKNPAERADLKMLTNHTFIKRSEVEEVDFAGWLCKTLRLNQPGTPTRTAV

Albumin [2] = molecular target: T1, Albumin (Bos taurus, UniProt P02769); assay: Binding affinity to bovine serum albumin assessed as increase in fluorescence intensity at 5 uM measured after 30 mins by TAMRA-N3 based In-gel fluorescence scanning analysis; conditions: cattle, 0.5 h
T1 sequence (P02769 whole entry): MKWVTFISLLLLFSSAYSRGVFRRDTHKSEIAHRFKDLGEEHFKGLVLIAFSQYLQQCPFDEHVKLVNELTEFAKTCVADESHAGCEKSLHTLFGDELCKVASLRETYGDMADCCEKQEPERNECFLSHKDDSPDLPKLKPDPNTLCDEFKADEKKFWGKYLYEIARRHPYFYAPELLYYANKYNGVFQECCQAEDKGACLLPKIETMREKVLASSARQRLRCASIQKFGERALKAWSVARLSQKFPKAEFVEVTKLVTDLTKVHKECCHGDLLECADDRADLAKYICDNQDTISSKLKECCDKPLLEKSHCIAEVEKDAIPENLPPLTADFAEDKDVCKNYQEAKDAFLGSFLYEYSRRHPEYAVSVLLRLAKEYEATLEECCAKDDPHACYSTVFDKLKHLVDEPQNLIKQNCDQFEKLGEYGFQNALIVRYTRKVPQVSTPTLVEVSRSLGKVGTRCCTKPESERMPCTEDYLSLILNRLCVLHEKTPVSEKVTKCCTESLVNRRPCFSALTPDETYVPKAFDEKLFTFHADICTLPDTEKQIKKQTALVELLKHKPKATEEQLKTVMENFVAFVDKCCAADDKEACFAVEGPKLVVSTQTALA

HepG2 [3] = assay: Inhibition of ERK phosphorylation in human HepG2 cells at 5 to 40 uM by Western blot analysis; type: cell-based; conditions: dose 5-40 µM
Albumin [4] = molecular target: T1, Albumin; assay: Binding affinity to bovine serum albumin assessed as increase in fluorescence intensity at 10 uM measured after 4 hrs by TAMRA-N3 based In-gel fluorescence scanning analysis; conditions: cattle
[5] = system: GTPase KRas (Homo sapiens), P01116 [G12D]; assay: Binding affinity to KRAS G12D mutant (unknown origin) measured after 30 mins by TAMRA-N3 based In-gel fluorescence scanning analysis; conditions: dose 5-50 µM
GTPase KRas (Homo sapiens), P01116 [G12D], sequence (P01116 whole entry G12D, looked up): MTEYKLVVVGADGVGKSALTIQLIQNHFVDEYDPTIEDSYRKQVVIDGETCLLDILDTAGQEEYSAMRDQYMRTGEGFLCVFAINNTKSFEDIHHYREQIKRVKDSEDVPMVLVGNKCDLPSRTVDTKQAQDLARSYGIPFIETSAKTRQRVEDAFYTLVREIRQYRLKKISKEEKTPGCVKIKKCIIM

[6] = Binding affinity to glutamic acid in aqueous solution measured within 3 hrs by HPLC analysis
[7] = molecular target: Aldehyde dehydrogenase 1A1 (Homo sapiens) (UniProt P00352); assay: Binding affinity to ALDH1 in human HepG2 cells at 100 uM incubated for 8 hrs by pull-down/Western blot analysis; type: cell-based
Aldehyde dehydrogenase 1A1 (Homo sapiens), sequence (P00352 whole entry): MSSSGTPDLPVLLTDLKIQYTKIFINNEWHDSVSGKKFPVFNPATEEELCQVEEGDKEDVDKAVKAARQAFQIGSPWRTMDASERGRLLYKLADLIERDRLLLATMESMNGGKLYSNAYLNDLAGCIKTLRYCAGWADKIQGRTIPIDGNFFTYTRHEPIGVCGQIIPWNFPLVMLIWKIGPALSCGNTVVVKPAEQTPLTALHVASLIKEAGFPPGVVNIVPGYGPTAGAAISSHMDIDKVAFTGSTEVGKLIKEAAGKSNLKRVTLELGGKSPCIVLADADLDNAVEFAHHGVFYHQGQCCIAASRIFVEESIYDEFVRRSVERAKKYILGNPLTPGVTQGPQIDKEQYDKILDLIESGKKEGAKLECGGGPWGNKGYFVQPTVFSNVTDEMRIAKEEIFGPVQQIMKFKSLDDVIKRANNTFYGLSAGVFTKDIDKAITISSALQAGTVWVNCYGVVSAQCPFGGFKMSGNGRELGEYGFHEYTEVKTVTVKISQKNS

Homo sapiens = species on record: Homo sapiens; assay: Binding affinity to beta-amylase (unknown origin) measured after 30 mins by TAMRA-N3 based In-gel fluorescence scanning analysis; conditions: dose 5-50 µM
[8] = Stability of the compound in DMSO/H2O solution measured after 7 days by 1H-NMR analysis; type: physicochemical; conditions: 168 h; time 7 day
Catalase (Homo sapiens) = Catalase (Homo sapiens) (UniProt P04040); assay: Binding affinity to catalase (unknown origin) measured after 30 mins by TAMRA-N3 based In-gel fluorescence scanning analysis; conditions: dose 5-50 µM
Catalase (Homo sapiens), sequence (P04040 whole entry): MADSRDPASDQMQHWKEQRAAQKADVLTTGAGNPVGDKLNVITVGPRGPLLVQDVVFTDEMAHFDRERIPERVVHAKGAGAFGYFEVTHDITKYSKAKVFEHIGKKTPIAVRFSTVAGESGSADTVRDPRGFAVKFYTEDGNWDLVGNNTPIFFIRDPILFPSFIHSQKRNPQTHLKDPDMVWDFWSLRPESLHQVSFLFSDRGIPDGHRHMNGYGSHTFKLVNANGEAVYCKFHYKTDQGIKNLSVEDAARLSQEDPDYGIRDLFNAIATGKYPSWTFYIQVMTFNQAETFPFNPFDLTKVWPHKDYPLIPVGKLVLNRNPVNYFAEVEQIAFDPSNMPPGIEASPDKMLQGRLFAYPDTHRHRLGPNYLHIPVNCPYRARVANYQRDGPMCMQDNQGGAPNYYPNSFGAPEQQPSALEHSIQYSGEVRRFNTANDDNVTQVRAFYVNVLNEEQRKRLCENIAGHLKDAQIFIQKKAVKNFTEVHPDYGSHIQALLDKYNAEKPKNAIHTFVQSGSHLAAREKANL

[9] = molecular target: Delta(3,5)-Delta(2,4)-dienoyl-CoA isomerase, mitochondrial (Homo sapiens) (UniProt Q13011); assay: Binding affinity to ECH1 in human HepG2 cells at 100 uM incubated for 8 hrs by pull-down/Western blot analysis; type: cell-based
Delta(3,5)-Delta(2,4)-dienoyl-CoA isomerase, mitochondrial (Homo sapiens), sequence (Q13011 whole entry): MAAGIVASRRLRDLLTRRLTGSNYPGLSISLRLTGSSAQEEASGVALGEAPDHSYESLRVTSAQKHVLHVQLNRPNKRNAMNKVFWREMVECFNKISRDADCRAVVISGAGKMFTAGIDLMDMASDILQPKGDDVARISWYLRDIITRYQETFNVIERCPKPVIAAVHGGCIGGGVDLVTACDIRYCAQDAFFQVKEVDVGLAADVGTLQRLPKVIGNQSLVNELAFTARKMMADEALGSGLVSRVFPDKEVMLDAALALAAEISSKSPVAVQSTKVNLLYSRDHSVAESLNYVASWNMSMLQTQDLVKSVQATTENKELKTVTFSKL

[10] = molecular target: Dual specificity mitogen-activated protein kinase kinase 2 (Homo sapiens) (UniProt P36507); assay: Stabilization of MEK2 in human HepG2 cells assessed as increase in thermal stability at 50 uM incubated for 3 hrs by cellular thermal shift assay; type: cell-based
[11] = molecular target: Aldehyde dehydrogenase, mitochondrial (Homo sapiens) (UniProt P05091); assay: Binding affinity to ALDH2 in human HepG2 cells at 100 uM incubated for 8 hrs by pull-down/Western blot analysis; type: cell-based
Aldehyde dehydrogenase, mitochondrial (Homo sapiens), sequence (P05091 whole entry): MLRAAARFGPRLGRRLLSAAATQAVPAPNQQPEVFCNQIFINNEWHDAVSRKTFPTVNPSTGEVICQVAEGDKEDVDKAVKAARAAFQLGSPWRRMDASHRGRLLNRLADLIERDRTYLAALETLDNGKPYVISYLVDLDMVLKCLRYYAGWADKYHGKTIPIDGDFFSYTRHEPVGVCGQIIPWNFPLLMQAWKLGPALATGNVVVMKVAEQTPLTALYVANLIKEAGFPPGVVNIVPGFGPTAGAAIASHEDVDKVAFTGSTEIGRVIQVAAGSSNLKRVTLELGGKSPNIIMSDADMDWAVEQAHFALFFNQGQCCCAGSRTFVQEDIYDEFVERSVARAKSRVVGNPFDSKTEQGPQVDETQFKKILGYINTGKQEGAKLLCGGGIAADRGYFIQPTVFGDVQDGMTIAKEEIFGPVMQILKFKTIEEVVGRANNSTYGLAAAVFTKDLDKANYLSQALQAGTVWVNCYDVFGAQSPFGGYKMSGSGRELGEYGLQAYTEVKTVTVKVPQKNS

Albumin [12] = molecular target: T1, Albumin; assay: Binding affinity to bovine serum albumin assessed as increase in fluorescence intensity at 10 uM measured after 4 hrs in presence of N,4-Dimethyl-N-(phenylethynyl)benzenesulfonamide by TAMRA-N3 based In-gel fluorescence scanning analysis; conditions: cattle
HepG2 [13] = assay: Binding affinity to G3P in human HepG2 cells at 100 uM incubated for 8 hrs by pull-down/Western blot analysis; type: cell-based
A549 = assay: cells; type: functional, cell-based; conditions: Homo sapiens, A549, 72 h
Description: Growth inhibition of human A549 cells expressing EGFR incubated for 72 hrs by CCK8 assay

NCI-H3255 [14] = assay: cells; type: functional, cell-based; conditions: Homo sapiens, NCI-H3255, 72 h
Description: Growth inhibition of human NCI-H3255 cells harbouring EGFR L858R mutant incubated for 72 hrs by CCK8 assay

NCI-H3255 [15] = assay: Inhibition of colony formation in human NCI-H3255 cells at 1.1 uM by Giemsa staining based assay; type: functional, cell-based
[16] = molecular target: Epidermal growth factor receptor (Homo sapiens) (UniProt P00533); assay: Inhibition of EGFR in human NCI-H3255 cells assessed as decrease in ERK phosphorylation level at 0.22 to 20 uM; type: cell-based; conditions: dose 0.22-20 µM
BaF3 = assay: Growth inhibition of mouse BaF3 cells harbouring EGFR L858R mutant incubated for 72 hrs by CCK8 assay; type: functional, cell-based; conditions: BaF3, 72 h
[17] = molecular target: Epidermal growth factor receptor (Homo sapiens) (UniProt P00533); assay: Inhibition of EGFR in human NCI-H3255 cells assessed as decrease in AKT phosphorylation level at 0.22 to 20 uM; type: cell-based; conditions: dose 0.22-20 µM
[18] = molecular target: Leucine-rich PPR motif-containing protein, mitochondrial (Homo sapiens) (UniProt P42704); assay: Binding affinity to LPPRC in human HepG2 cells at 10 uM incubated for 8 hrs by pull-down/LC-MS/MS analysis; type: cell-based
[19] = molecular target: Ubiquitin-like modifier-activating enzyme 1 (Homo sapiens) (UniProt P22314); assay: Binding affinity to UBA1 in human HepG2 cells at 10 uM incubated for 8 hrs by pull-down/LC-MS/MS analysis; type: cell-based
[20] = system: Epidermal growth factor receptor (Homo sapiens), P04626+P00533+Q15303+P21860 [L858R]; assay: Binding affinity to EGFR L858R mutant in mouse BaF3 cells at 10 uM incubated for 8 hrs by pull-down/Western blot analysis; type: cell-based
[21] = system: Epidermal growth factor receptor (Homo sapiens), P00533 [L858R]; assay: Binding affinity to EGFR L858R mutant in human NCI-H3255 cells at 10 uM incubated for 8 hrs by pull-down/Western blot analysis; type: cell-based
[22] = Growth inhibition of mouse Ba/F3 EGFR cells incubated for 72 hrs by CCK8 assay; type: functional, cell-based
[23] = molecular target: Epidermal growth factor receptor (Homo sapiens, UniProt P00533, L858R); assay: Inhibition of EGFR L858R mutant (unknown origin) using peptide substrate by FRET assay
[24] = molecular target: ATP-dependent translocase ABCB1 (Homo sapiens, UniProt P08183); assay: Binding affinity to MDR1 in human HepG2 cells at 10 uM incubated for 8 hrs by pull-down/LC-MS/MS analysis; type: cell-based; conditions: hepg2, 8 h
ATP-dependent translocase ABCB1, sequence (P08183 whole entry): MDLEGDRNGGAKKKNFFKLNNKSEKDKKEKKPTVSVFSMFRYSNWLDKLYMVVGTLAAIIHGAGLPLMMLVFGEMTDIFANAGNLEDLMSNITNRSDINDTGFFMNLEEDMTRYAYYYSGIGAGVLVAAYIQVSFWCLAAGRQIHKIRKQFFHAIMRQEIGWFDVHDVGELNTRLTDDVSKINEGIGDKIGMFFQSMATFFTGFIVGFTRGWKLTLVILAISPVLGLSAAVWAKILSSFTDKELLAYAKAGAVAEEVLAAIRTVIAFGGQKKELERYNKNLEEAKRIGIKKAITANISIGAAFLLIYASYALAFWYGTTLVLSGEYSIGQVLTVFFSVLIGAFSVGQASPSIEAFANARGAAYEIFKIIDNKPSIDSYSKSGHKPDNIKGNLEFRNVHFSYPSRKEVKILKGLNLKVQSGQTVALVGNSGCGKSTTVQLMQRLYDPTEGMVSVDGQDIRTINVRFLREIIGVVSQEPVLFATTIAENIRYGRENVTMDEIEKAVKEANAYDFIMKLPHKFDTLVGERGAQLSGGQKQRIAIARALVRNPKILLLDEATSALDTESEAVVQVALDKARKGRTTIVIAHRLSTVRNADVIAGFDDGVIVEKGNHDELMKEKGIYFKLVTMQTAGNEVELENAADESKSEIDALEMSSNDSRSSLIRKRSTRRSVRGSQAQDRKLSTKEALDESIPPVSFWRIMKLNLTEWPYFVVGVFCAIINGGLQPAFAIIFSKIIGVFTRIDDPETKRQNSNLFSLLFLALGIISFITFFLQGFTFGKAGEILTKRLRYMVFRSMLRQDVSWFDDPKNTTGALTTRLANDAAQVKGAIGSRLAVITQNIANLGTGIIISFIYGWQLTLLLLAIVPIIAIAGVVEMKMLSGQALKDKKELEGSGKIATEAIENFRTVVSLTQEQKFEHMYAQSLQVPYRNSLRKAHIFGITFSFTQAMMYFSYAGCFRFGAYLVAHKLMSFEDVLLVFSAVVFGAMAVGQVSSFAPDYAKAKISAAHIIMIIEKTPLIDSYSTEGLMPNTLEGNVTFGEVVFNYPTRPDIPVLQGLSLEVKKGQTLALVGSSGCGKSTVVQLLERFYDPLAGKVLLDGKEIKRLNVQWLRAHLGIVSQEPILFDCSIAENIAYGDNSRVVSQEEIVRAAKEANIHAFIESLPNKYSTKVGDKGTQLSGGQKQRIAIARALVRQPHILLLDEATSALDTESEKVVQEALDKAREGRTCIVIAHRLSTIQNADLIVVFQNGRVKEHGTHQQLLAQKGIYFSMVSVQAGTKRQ

[25] = molecular target: Glutathione S-transferase 3, mitochondrial (Homo sapiens) (UniProt O14880); assay: Binding affinity to MGST3 in human HepG2 cells at 10 uM incubated for 8 hrs by pull-down/LC-MS/MS analysis; type: cell-based
Glutathione S-transferase 3, mitochondrial (Homo sapiens), sequence (O14880 whole entry): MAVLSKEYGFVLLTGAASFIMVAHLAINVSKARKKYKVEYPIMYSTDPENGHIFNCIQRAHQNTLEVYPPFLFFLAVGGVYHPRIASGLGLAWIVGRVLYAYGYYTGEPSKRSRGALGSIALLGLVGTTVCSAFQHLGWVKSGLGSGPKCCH

[26] = system: Epidermal growth factor receptor (Homo sapiens), P00533 [L858R]; assay: Binding affinity to EGFR L858R mutant in human NCI-H3255 cells assessed as increase in thermal stability at 0.5 uM incubated for 3 hrs by cellular thermal shift assay; type: cell-based
[27] = molecular target: Epidermal growth factor receptor (Homo sapiens) (UniProt P00533); assay: Inhibition of EGFR phosphorylation in human NCI-H3255 cells at 0.22 to 20 uM; type: cell-based; conditions: dose 0.22-20 µM
NCI-H3255 [28] = assay: Inhibition of colony formation in human NCI-H3255 cells at 10 uM by Giemsa staining based assay; type: functional

- Activity [1]: Active
- Activity (Albumin [2]): Active
- Activity (Albumin [4]): Active
- Activity [5]: Active
- Activity [6]: Active
- Activity [7]: Active
- Activity (Homo sapiens): Active
- Stability [8]: Stable
- Activity (Catalase (Homo sapiens)): Active
- Activity [9]: Active
- Activity [10]: Active
- Activity [11]: Active
- Activity (Albumin [12]): Active
Structure (SMILES): C#Cc1ccc(S(=O)(=O)N(C)C#C)cc1
- inhibition (HepG2 [3]): Active
- Activity (HepG2 [13]): Active

- Activity (Albumin [4]): Active
Structure (SMILES): C#Cc1ccc(OCc2ccc(S(=O)(=O)N(C)C#C)cc2)cc1

- IC50 (A549): > 50 µM
- IC50 (NCI-H3255 [14]): 7.8 µM
Structure (SMILES): C#Cc1cccc(Oc2ncnc3ccc(OCc4ccc(S(=O)(=O)NC)cc4)cc23)c1

- IC50 (A549): 7.61 µM
- inhibition [16]: Active
- IC50 (BaF3): 1.71 µM
- inhibition [17]: Active
- Activity [18]: Active
- Activity (Albumin [4]): Active
- Activity [19]: Active
- Activity [20]: Active
- Activity [21]: Active
- IC50 [23]: 5.67 µM
- Activity [24]: Active
- IC50 (NCI-H3255 [14]): 1.89 µM
- Activity [25]: Active
- Activity [26]: Active
- inhibition [27]: Active
Structure (SMILES): C#Cc1cccc(Oc2ncnc3ccc(OCc4ccc(S(=O)(=O)N(C)C#C)cc4)cc23)c1
- inhibition (NCI-H3255 [15]): Active
- IC50 [22]: 6.48 µM
- inhibition at 10 µM (NCI-H3255 [28]): 100%
